According to patent US20060069132A1, “Azolecarboxamide herbicides” (priority 2004, published 2006):

Legend:
giant foxtail = assay: Test A pre-/postemergence herbicide test; format: in vivo, Setaria faberi
Summary of the method: (§1)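 Visual injury scores on a 0–100 scale (100 = complete control) taken about ten days post-treatment in greenhouse against untreated controls; dash means no result. Treatments: preemergence soil spray and postemergence spray to runoff on one- to two-leaf plants 2 to 10 cm tall, surfactant-containing formulation.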

velvetleaf [1] = assay: Test A pre-/postemergence herbicide test; format: in vivo, Abutilon theophrasti
Summary of the method: as §1

rice = assay: Test B pre-/postemergence herbicide test; format: in vivo, Oryza sativa; conditions: for Rice plant response rating (0 to 100 scale) / Plant response rating, Rice: preemergence
Summary of the method: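 Herbicidal effect was judged by eye on a 0–100 scale after plants stood 13 to 15 days in the greenhouse following pre- or postemergence treatment with surfactant-containing formulations.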

pigweed = assay: Test C pre-/postemergence herbicide test; format: in vivo, Amaranthus retroflexus
Text: (§2) Seeds of plant species selected from bermudagrass (Cynodon dactylon (L.) Pers.), Surinam grass (Urochloa decumbens (Staph) R. D. Webster, previously named Brachiaria decumbens Stapf), cocklebur (Xanthium strumarium L.), corn (Zea mays L.), large crabgrass (Digitaria sanguinalis (L.) Scop.), woolly cupgrass (Eriochloa villosa (Thunb.) Kunth), giant foxtail (Setaria faberi Herrm.), goosegrass (Eleusine indica (L.) Gaertn.), johnsongrass (Sorghum halepense (L.) Pers.), kochia (Kochia scoparia (L.) Schrad.), lambsquarters (Chenopodium album L.), morningglory (Ipomoea coccinea L.), eastern black nightshade (Solanum ptycanthum Dunal), yellow nutsedge (Cyperus esculentus L.), pigweed (Amaranthus retroflexus L.), common ragweed (Ambrosia elatior L.), soybean (Glycine max (L.) Merr.), common (oilseed) sunflower (Helianthus annuus L.) and velvetleaf (Abutilon theophrasti Medik.) were planted and treated preemergence with test chemicals formulated in a non-phytotoxic solvent mixture which included a surfactant.
(§3) At the same time, plants selected from these crop and weed species and also winter barley (Hordeum vulgare L.), blackgrass (Alopecurus myosuroides Huds.), canarygrass (Phalaris minor Retz.), chickweed (Stellaria media (L.) Vill.), downy bromegrass (Bromus tectorum L.), green foxtail (Setaria viridis (L.) Beauv.), Italian ryegrass (Lolium multiflorum Lam.), wheat (Triticum aestivum L.), wild oat (Avenafatua L.) and windgrass (Apera spica-venti (L.) Beauv.) were treated with postemergence applications of some of the test chemicals formulated in the same manner. Plants ranged in height from 2 to 18 cm (1- to 4-leaf stage) for postemergence treatments. Plant species in the flooded paddy test consisted of rice (Oryza sativa), smallflower umbrella sedge (Cyperus difformis L.), ducksalad (Heteranthera limosa (Sw.) Willd.) and barnyardgrass (Echinochloa crus-galli (L.) Beauv.) grown to the 2-leaf stage for testing. Treated plants and controls were maintained in a greenhouse for 12 to 14 days, after which time all species were compared to controls and visually evaluated. Plant response ratings, summarized in Table C, are based on a scale of 0 to 100 where 0 is no effect and 100 is complete control. A dash (-) response means no test result.

cocklebur = assay: Test C pre-/postemergence herbicide test; format: in vivo, Xanthium strumarium
Text: as §2, §3

velvetleaf [2] = assay: Test C pre-/postemergence herbicide test; format: in vivo, Abutilon theophrasti
Text: as §2, §3

large crabgrass = assay: Test C pre-/postemergence herbicide test; format: in vivo, Digitaria sanguinalis
Text: as §2, §3

[3] = Postemergence, 500 g ai/ha, 0 to 100 scale, 0 no effect, 100 complete control
[4] = Postemergence, 2000 g ai/ha, 0 to 100 scale, 0 no effect, 100 complete control
[5] = Preemergence, 2000 g ai/ha, visual rating, 0 to 100 scale (0 no effect, 100 complete control)
[6] = preemergence, 500 g ai/ha, visual injury, 0 to 100 scale (0 no effect, 100 complete control)
[7] = 125 g ai/ha, 0 = no effect, 100 = complete control
[8] = 500 g ai/ha, visual rating, 0 = no effect, 100 = complete control
[9] = Preemergence, 500 g ai/ha, visual rating, 0 to 100 scale (0 no effect, 100 complete control)
[10] = 500 g ai/ha, visual rating 0-100, 0 no effect, 100 complete control
[11] = Postemergence, 250 g ai/ha, scale 0 to 100, 0 no effect, 100 complete control
[12] = Postemergence, 500 g ai/ha, scale 0 to 100, 0 no effect, 100 complete control
[13] = postemergence, 125 g ai/ha, scale 0 to 100
[14] = postemergence, 62 g ai/ha, scale 0 to 100
[15] = Preemergence, 2000 g ai/ha, 0 to 100 scale, 0 no effect, 100 complete control
[16] = 62 g ai/ha, preemergence, scale 0 to 100
[17] = 250 g ai/ha, scale 0-100, preemergence
[18] = 500 g ai/ha, scale 0 to 100 (0 no effect, 100 complete control), visual, 12 to 14 days, preemergence

Row | SMILES | Foxtail, Giant plant response rating (giant foxtail; [3]) | Plant response rating, Foxtail, Giant (giant foxtail; [4]) | Foxtail, Giant plant response rating (giant foxtail; [5]) | Foxtail, Giant plant response rating (giant foxtail; [6]) | Velvetleaf plant response rating (velvetleaf [1]; [3]) | Plant response rating, Velvetleaf (velvetleaf [1]; [4]) | Velvetleaf plant response rating (velvetleaf [1]; [5]) | Velvetleaf plant response rating (velvetleaf [1]; [6]) | Foxtail, Giant plant response rating (giant foxtail; [9]) | Plant response rating, Rice (rice; [10]) | further results
1 | C#CCNC(=O)c1cc(NC(=O)c2cc(C(C)(C)C)nn2CC)ccn1 [Compound 283] | 10 | 25 | 50 | 10 | 15 | 35 | 15 | 0 | – | – | Rice plant response rating (0 to 100 scale) (rice; [7]): 0; Plant response rating, Rice (rice; [8]): 0
2 | CCOc1cccc(NC(=O)c2cc(C(C)(C)C)nn2CC)c1 [Compound 136] | 25 | 50 | 70 | – | 55 | 75 | 30 | 25 | 60 | 50 | –
3 | CCn1nc(C(C)(C)C)cc1C(=O)Nc1cc(OC(F)(F)F)ccc1F [Compound 338] | 20 | 30 | 100 | 80 | 40 | 60 | 50 | 20 | – | – | Plant response rating, Pigweed (pigweed; [11]): 80; Plant response rating, Pigweed (pigweed; [12]): 80; Plant response rating, Pigweed (pigweed; [13]): 5; Plant response rating, Pigweed (pigweed; [14]): 0; Plant response rating, Cocklebur (cocklebur; [11]): 5; Plant response rating, Cocklebur (cocklebur; [12]): 5; Plant response rating, Cocklebur (cocklebur; [13]): 0; Plant response rating, Cocklebur (cocklebur; [14]): 0; Plant response rating, Velvetleaf (velvetleaf [2]; [11]): 40; Plant response rating, Velvetleaf (velvetleaf [2]; [12]): 80; Plant response rating, Velvetleaf (velvetleaf [2]; [13]): 0; Plant response rating, Velvetleaf (velvetleaf [2]; [14]): 0; Plant response rating, Crabgrass, Large (large crabgrass; [11]): 10; Plant response rating, Crabgrass, Large (large crabgrass; [12]): 15; Plant response rating, Crabgrass, Large (large crabgrass; [13]): 5; Plant response rating, Crabgrass, Large (large crabgrass; [14]): 0
4 | CCn1nc(C(C)(C)C)cc1C(=O)Nc1cccc(OCCCF)c1 [Compound 138] | 20 | 35 | 90 | – | 20 | 60 | 50 | 20 | 30 | 40 | –
5 | CCn1nc(C(C)(C)C)cc1C(=O)Nc1cc(C(=O)NCC2CC2)ccn1 [Compound 155] | – | – | – | – | – | – | – | – | – | 50 | Plant response rating, Rice (rice; 125 g ai/ha, 0 to 100 scale, 0 is no effect, 100 is complete control): 20
6 | CCN(C(C)=O)C(=O)c1ccc(F)c(NC(=O)c2cc(C(C)(C)C)nn2CC)c1 [Compound 413] | 10 | 35 | 90 | 65 | 40 | 55 | 35 | 35 | – | – | –
7 | CCn1nc(C(C)(C)C)cc1C(=O)Nc1nc(C(=O)N2CC=CC2)ccc1F [Compound 281] | 0 | 25 | 75 | 60 | 35 | 40 | 35 | 10 | – | – | Rice plant response rating (0 to 100 scale) (rice; [7]): 20; Plant response rating, Rice (rice; [8]): 60
8 | CCn1nc(C(C)(C)C)cc1C(=O)Nc1cccc(C(=O)NCCF)c1 [Compound 45] | – | 95 | – | – | – | 65 | – | – | 75 | – | Plant response rating, Foxtail, Giant (giant foxtail; [3]): 90; Foxtail, Giant plant response rating (giant foxtail; [15]): 100; Velvetleaf plant response rating (velvetleaf [1]; [9]): 25; Velvetleaf plant response rating (velvetleaf [1]; [15]): 65
9 | CCN(CC)C(=O)c1cncc(NC(=O)c2cc(C(C)(C)C)nn2CC)c1 [Compound 261, 5-[[[3-(1,1-dimethylethyl)-1-ethyl-1H-pyrazol-5-yl]carbonyl]amino]-N,N-diethyl-3-pyridinecarboxamide] | – | – | – | – | – | – | – | – | – | – | plant injury at 125 g/ha (rice; Oryza sativa, pre-emergence, 336 h, 125 g ai/ha, 0 = no effect, 100 = complete control, read-out: Rice plant response rating (0 to 100 scale)): 0%; plant injury at 500 g/ha (rice; Oryza sativa, pre-emergence, 336 h, 500 g ai/ha, visual rating, 0 = no effect, 100 = complete control, read-out: Plant response rating, Rice): 60%
10 | CCc1nn(C(C)C)nc1C(=O)Nc1cccc(C(=O)N2CCCCC2)c1 [Compound 385] | – | – | – | – | – | – | – | – | – | – | Plant response rating, Pigweed (pigweed; [16]): 80; Plant response rating (0 = no effect, 100 = complete control), Pigweed (pigweed; 125 g ai/ha, preemergence): 100; Plant response rating, Pigweed (pigweed; [17]): 100; Plant response rating, Pigweed (pigweed; [18]): 100; Plant response rating, Cocklebur (cocklebur; [16]): 0; Plant response rating (0 = no effect, 100 = complete control), Cocklebur (cocklebur; 125 g ai/ha, preemergence): 0; Plant response rating, Cocklebur (cocklebur; [17]): 100; Plant response rating, Cocklebur (cocklebur; [18]): 100; Plant response rating, Velvetleaf (velvetleaf [2]; [16]): 50; Plant response rating (0 = no effect, 100 = complete control), Velvetleaf (velvetleaf [2]; 125 g ai/ha, preemergence): 85; Plant response rating, Velvetleaf (velvetleaf [2]; [17]): 100; Plant response rating, Velvetleaf (velvetleaf [2]; [18]): 100; Plant response rating, Crabgrass, Large (large crabgrass; [16]): 90; Plant response rating (0 = no effect, 100 = complete control), Crabgrass, Large (large crabgrass; 125 g ai/ha, preemergence): 95; Plant response rating, Crabgrass, Large (large crabgrass; [17]): 100; Plant response rating, Crabgrass, Large (large crabgrass; [18]): 100
